# According to EPA's ToxRefDB 2:
# Legend:
# rat [1] = settings: Developmental neurotoxicity study; fischer; Injection; Intraperitoneal; dose end: 30 PND; group: cannot be grouped; systemic / in life observation / body weight / offspring (pup) weight
# rat [2] = settings: Combined chronic toxicity/carcinogenicity, sprague dawley, Oral, Feed, dose end: 2 year, group: systemic
# mouse [3] = settings: Subchronic oral toxicity in rodents, other, Feed, dose end: 90 day, group: systemic, systemic / in life observation / clinical signs / aggressive behavior + systemic / in life observation / clinical signs / irritability + …
# dog [4] = settings: Subchronic oral toxicity in nonrodent, beagle, Capsule, dose end: 13 week, group: systemic
# mouse [5] = settings: Carcinogenicity, cd1, Oral, Feed, dose end: 78 week, group: systemic
# rat [6] = settings: Subchronic oral toxicity in rodents, sprague dawley, Feed, dose end: 13 week, group: systemic
# rat [7] = settings: Prenatal developmental toxicity study, sprague dawley, Oral, Gavage/Intubation, dose end: 15 GD
# mouse [8] = settings: Subchronic oral toxicity in rodents, cd1, Feed, dose end: 13 week, group: systemic
# dog [9] = settings: Chronic toxicity; beagle; Oral; Capsule; dose end: 52 week; group: systemic; systemic / in life observation / clinical signs / excitation + systemic / in life observation / clinical signs / hypersensitivity + systemic…
# rat [10] = settings: Chronic toxicity, sprague dawley, Oral, Gavage/Intubation, dose end: 53 week, group: systemic
# rat [11] = settings: Prenatal developmental toxicity study; sprague dawley; Oral; Gavage/Intubation; dose end: 20 GD; group: maternal; systemic / in life observation / body weight / body weight gain
# rat [12] = settings: Multigenerational reproductive toxicity study, sprague dawley, Oral, Feed, dose end: 2 generation
# rat [13] = settings: Combined chronic toxicity/carcinogenicity, sprague dawley, Oral, Feed, dose end: 24 month, group: systemic
# dog [14] = settings: Chronic toxicity; beagle; Oral; Feed; dose end: 52 week; group: systemic; systemic / clinical chemistry / bilirubin / total bilirubin + systemic / hematology / erythrocyte (rbc) count differential / erythrocyte (…
# mouse [15] = settings: Carcinogenicity, cd1, Oral, Feed, dose end: 18 month, group: systemic
# rat [16] = settings: Subchronic oral toxicity in rodents, sprague dawley, Feed, dose end: 13 week, group: systemic; remark: listed apart in the source
# dog [17] = settings: Subchronic oral toxicity in nonrodent, beagle, Feed, dose end: 90 day, group: systemic
# mouse [18] = settings: Subchronic oral toxicity in rodents, cd1, Feed, dose end: 90 day, group: systemic
# [19] = systemic / clinical chemistry / albumin / albumin + systemic / clinical chemistry / albumin-globulin ratio / albumin-globulin ratio + …
# [20] = systemic / organ weight / brain / relative to body weight + systemic / organ weight / spleen / absolute + systemic / organ weight / thyroid …
# [21] = systemic / in life observation / body weight / body weight gain + systemic / in life observation / clinical signs / anorexia
# [22] = systemic / in life observation / body weight / body weight gain + systemic / in life observation / clinical signs / anorexia + systemic / in…
# [23] = systemic / organ weight / liver / relative to body weight + systemic / pathology microscopic / liver / vacuolization + systemic / in life …
# [24] = systemic / clinical chemistry / urea nitrogen / urea nitrogen + systemic / clinical chemistry / aspartate aminotransferase (ast/sgot) / …
# [25] = group: developmental, developmental / developmental malformation / bone / incomplete ossification + systemic / in life observation / body weight / fetal weight
# [26] = group: maternal, systemic / in life observation / body weight / body weight gain + systemic / in life observation / food consumption / food consumption + …
# [27] = systemic / in life observation / body weight / body weight gain
# [28] = systemic / pathology microscopic / liver / hypertrophy + systemic / pathology microscopic / liver / vacuolization cytoplasmic
# [29] = systemic / clinical chemistry / alkaline phosphatase (alp/alk) / alkaline phosphatase (alp/alk) + systemic / clinical chemistry / aspartate …
# [30] = systemic / hematology / monocytes / monocytes + systemic / in life observation / clinical signs / salivation
# [31] = group: offspring, developmental / offspring survival late / viability index / viability index
# [32] = group: parental, systemic / pathology microscopic / spleen / pigmentation
# [33] = group: parental, systemic / pathology microscopic / spleen / pigmentation + systemic / in life observation / body weight / body weight + systemic / in life …
# [34] = group: reproductive, reproductive / offspring survival early / birth index / live birth index
# [35] = systemic / hematology / erythrocyte (rbc) count differential / erythrocyte (rbc) + systemic / hematology / hematocrit (hct) / hematocrit (…
# [36] = systemic / in life observation / mortality / mortality
# [37] = systemic / hematology / erythrocyte (rbc) count differential / erythrocyte (rbc) + systemic / hematology / hemoglobin (hgb) / hemoglobin (…
# [38] = systemic / hematology / heinz body / heinz body + systemic / hematology / hematocrit (hct) / hematocrit (hct) + systemic / hematology / …
# [39] = systemic / urinalysis / appearance and color / appearance and color
# [40] = systemic / in life observation / body weight / body weight gain + systemic / clinical chemistry / alkaline phosphatase (alp/alk) / alkaline …
smiles,measurement,setting,value
CN=C1CN(O)C(c2ccccc2)=c2cc(Cl)ccc2=N1 [Chlordiazepoxide],LEL,rat [1],1 mg/kg/day
same,LOAEL,rat [1],> 1 mg/kg/day
same,NEL,rat [1],< 1 mg/kg/day
same,NOAEL,rat [1],≥ 1 mg/kg/day
N#Cc1nn(-c2c(Cl)cc(C(F)(F)F)cc2Cl)c(N)c1S(=O)C(F)(F)F (centres undefined) [Fipronil],LOAEL,rat [2]; [19],0.059 mg/kg/day
same,NOAEL,rat [2]; [19],0.019 mg/kg/day
same,LEL,rat [2]; [20],0.019 mg/kg/day
same,NEL,rat [2]; [20],< 0.019 mg/kg/day
same,LEL,mouse [3],0.32 mg/kg/day
same,LOAEL,mouse [3],0.32 mg/kg/day
same,NEL,mouse [3],0.08 mg/kg/day
same,NOAEL,mouse [3],0.08 mg/kg/day
same,LEL,dog [4]; [21],2 mg/kg/day
same,LOAEL,dog [4]; [21],2 mg/kg/day
same,NEL,dog [4]; [22],0.5 mg/kg/day
same,NOAEL,dog [4]; [22],0.5 mg/kg/day
same,LEL,mouse [5]; systemic / organ weight / liver / relative to body weight,0.055 mg/kg/day
same,LOAEL,mouse [5]; [23],1.18 mg/kg/day
same,NEL,mouse [5]; [23],0.011 mg/kg/day
same,NOAEL,mouse [5]; [23],0.055 mg/kg/day
same,LOAEL,rat [6]; systemic / clinical chemistry / protein / protein,1.93 mg/kg/day
same,NOAEL,rat [6]; systemic / clinical chemistry / protein / protein + systemic / clinical chemistry / albumin-globulin ratio / albumin-globulin ratio + …,0.33 mg/kg/day
same,LEL,rat [6]; [24],0.07 mg/kg/day
same,NEL,rat [6]; [24],< 0.07 mg/kg/day
same,LOAEL,"rat [7]; group: developmental, developmental / developmental malformation / bone / incomplete ossification",2.5 mg/kg/day
same,LEL,rat [7]; [25],2.5 mg/kg/day
same,NEL,rat [7]; [25],1 mg/kg/day
same,NOAEL,rat [7]; [25],1 mg/kg/day
same,LEL,rat [7]; [26],2.5 mg/kg/day
same,LOAEL,rat [7]; [26],2.5 mg/kg/day
same,NEL,rat [7]; [26],1 mg/kg/day
same,NOAEL,rat [7]; [26],1 mg/kg/day
same,LOAEL,mouse [8]; [27],3.2 mg/kg/day
same,NOAEL,mouse [8]; systemic / in life observation / body weight / body weight gain + systemic / organ weight / liver / absolute + systemic / organ weight / …,1.27 mg/kg/day
same,LEL,mouse [8]; [28],0.13 mg/kg/day
same,NEL,mouse [8]; [28],< 0.13 mg/kg/day
same,LEL,dog [9],2 mg/kg/day
same,LOAEL,dog [9],2 mg/kg/day
same,NEL,dog [9],0.2 mg/kg/day
same,NOAEL,dog [9],0.2 mg/kg/day
CO[C@@H]1COCC[C@@H]1[NH2+][C@@H]1CC[C@@](C(=O)N2CCc3ncc(C(F)(F)F)cc3C2)(C(C)C)C1.O=C([O-])CCC(=O)O [MK-812],LOAEL,rat [10]; [29],> 80 mg/kg/day
same,NOAEL,rat [10]; [29],≥ 80 mg/kg/day
same,LEL,rat [10]; [30],5 mg/kg/day
same,NEL,rat [10]; [30],< 5 mg/kg/day
same,LEL,rat [11],30 mg/kg/day
same,LOAEL,rat [11],> 30 mg/kg/day
same,NEL,rat [11],10 mg/kg/day
same,NOAEL,rat [11],≥ 30 mg/kg/day
CCc1ccc(C(=O)NN(C(=O)c2cc(C)cc(C)c2)C(C)(C)C)cc1 [Tebufenozide],LEL,rat [12]; [31],155 mg/kg/day
same,LOAEL,rat [12]; [31],> 155 mg/kg/day
same,NEL,rat [12]; [31],11.5 mg/kg/day
same,NOAEL,rat [12]; [31],≥ 155 mg/kg/day
same,LEL,rat [12]; [32],11.5 mg/kg/day
same,LOAEL,rat [12]; [32],11.5 mg/kg/day
same,NEL,rat [12]; [33],0.8 mg/kg/day
same,NOAEL,rat [12]; [33],0.8 mg/kg/day
same,LEL,rat [12]; [34],155 mg/kg/day
same,LOAEL,rat [12]; [34],155 mg/kg/day
same,NEL,rat [12]; [34],11.5 mg/kg/day
same,NOAEL,rat [12]; [34],11.5 mg/kg/day
same,LOAEL,rat [13]; [35],48 mg/kg/day
same,NOAEL,rat [13]; [35],5 mg/kg/day
same,LEL,rat [13]; systemic / pathology gross / ovary / cyst,6 mg/kg/day
same,NEL,rat [13]; systemic / pathology gross / ovary / cyst + systemic / organ weight / adrenal gland / relative to body weight + systemic / organ weight / …,0.6 mg/kg/day
same,LEL,dog [14],7 mg/kg/day
same,LOAEL,dog [14],7 mg/kg/day
same,NEL,dog [14],1.6 mg/kg/day
same,NOAEL,dog [14],1.6 mg/kg/day
same,LEL,mouse [15]; [36],0.8 mg/kg/day
same,NEL,mouse [15]; [36],< 0.8 mg/kg/day
same,LOAEL,mouse [15]; systemic / in life observation / mortality / mortality + systemic / pathology microscopic / spleen / pigmentation + systemic / organ weight…,78 mg/kg/day
same,NOAEL,mouse [15]; systemic / pathology microscopic / spleen / pigmentation + systemic / organ weight / spleen / absolute,7.8 mg/kg/day
same,LOAEL,rat [16]; [37],133 mg/kg/day
same,NEL,rat [16]; [37],1.3 mg/kg/day
same,NOAEL,rat [16]; [37],13.1 mg/kg/day
same,LEL,rat [16]; systemic / organ weight / testes / relative to body weight,13.1 mg/kg/day
same,LOAEL,dog [17]; [38],20.1 mg/kg/day
same,NOAEL,dog [17]; [38],2.1 mg/kg/day
same,LEL,dog [17]; [39],2.1 mg/kg/day
same,NEL,dog [17]; [39],< 2.1 mg/kg/day
same,LEL,mouse [18]; [27],35.3 mg/kg/day
same,LOAEL,mouse [18]; [27],35.3 mg/kg/day
same,NEL,mouse [18]; [40],3.4 mg/kg/day
same,NOAEL,mouse [18]; [40],3.4 mg/kg/day
